Results published in patent US20260007802A1, “ANNEALED MICROGEL PARTICLE SYSTEMS AND METHODS” (Tempo Therapeutics, Inc., priority 2023, published 2026).

Key:
3T3 fibroblasts = assay: In vitro cytocompatibility, WST-8 proliferation assay (Example 2); format: cell-based, mouse; conditions: WST-8, days 1, 3 and 6
Experimental: Prior to animal experiments, formulations 1-3 and formulations 4-5 were tested (all in the presence and absence of annealing chemistry) for cytocompatibility using immortalized and primary cells. The WST-8 proliferation assay was used to assess cell viability and compare to positive (vehicle) and negative (cytotoxic agent) controls. The formulations used are listed in Table 5 below, along with their characteristics.
In vitro experiments were performed in well plate format. Cells were grown in culture media in adherent culture, and then exposed to either (i) hydrogel microgel particle suspensions, (ii) hydrogel microgel particle suspensions actively undergoing the annealing process, or (iii) the reaction conditions of the annealing process including soluble components but in the absence of hydrogel microgel particles. After exposure, cells were grown in adherent culture for […], measuring proliferation at 1, 3, and 6 days after exposure.
3T3 fibroblasts were grown to 90% confluent and then suspended in DMEM at 2.5×10^6 cells/mL. Then, 2 μL of cell suspension was mixed with MAP (see Table 1 for description of the different formulations tested for cytocompatibility) and added to a 96-well plate. […] Cell viability was then measured at 450 nm using WST-8 kit.

[1] = Chemical annealing kinetics, elastic modulus over time (Instron); format: physicochemical
Experimental: In the rat intradermal study (see Example 2), MAP was annealed using 0.1 mM PETMA (Pentaerythrivol tetras(2-mercaptoacetate)), a 4-thiol containing crosslinker. The thiol groups react with the free vinyl sulfones on the microgel particles in a thiol-ene Michael addition reaction. […] The optimization of the chemical annealing was performed with formulation 1-3. […] Briefly, gels initially formulated at a volume fraction of 100% was thoroughly mixed with the crosslinkers (0.1-0.2 mM) at different pHs, which led to diluting gels to 80%. The elastic modulus was measured at different time points using Instron.
Then, the different HA-MAP formulations were annealed using the selected annealing agent at 0.2 mM at pH 7.4. […] Elastic modulus over time was measured using Instron.
The final volume fraction for annealing was 80% for all annealing conditions.

In the case of `O=C(CS)OCC(COC(=O)CS)(COC(=O)CS)COC(=O)CS` [PETMA, Pentaerythritol tetrakis(2-mercaptoacetate)], the “cytotoxic effect on cell viability” value (3T3 fibroblasts) is reported as “dose dependent cytotoxic effect”, the “time to full annealing” value ([1]; annealing agent with formulations 1-3 gels, pH 7.4) is reported as ≤ 5 min and the “time before it is annealed” value ([1]; pH 6.5) is reported as < 10 min.

For `CCN(CC)CC(=O)Nc1c(C)cccc1C` [lidocaine], the “effect on kinetic of annealing and final stiffness” value ([1]; 0.3% wt, three batches of 4a, 0.2 mM PEG-dithiol 3.4 kDa, pH 7.4) was “reduces the final stiffness after annealing and slightly slows down the reaction”.
